Measurements as given in publication PMC10101059, “Rational Design of Stapled Antimicrobial Peptides to Enhance Stability and In Vivo Potency against Polymicrobial Sepsis” (Microbiology Spectrum, 2023).
≈ marks a conversion by molar mass, not a printed value. Like-named read-outs stand apart in the source and are kept apart here. Bridge positions count the residues as written; N and C are the ends. Square brackets hold non-standard residues; d marks the D form. Peptide text beside a SMILES is read from it. R5 = C=CCCC[C@@](C)(N)C(=O)O

Experiments:
MDR A. baumannii 2982 = assay: microbe, parasite or virus in culture; assay type: cell-based, Acinetobacter baumannii; conditions: MDR 2982
Description: (§1) The antimicrobial assay was performed according to a modified National Committee for Clinical Laboratory Standards (NCCLS) protocol ([41], [42]). Briefly, 5 × 10^5 CFU/mL bacterial cells were treated with various peptide concentrations and incubated at 37 ± 2°C for 16 to 20 h. The lowest concentration with clear wells was recorded as the MIC for each test molecule. The clear wells were further plated in Mueller-Hinton agar (MHA) plates, followed by incubation overnight at 37 ± 2°C. After plating, the lowest concentration at which no growth was observed was recorded as the MBC. For the serum sensitivity assay, the antimicrobial activity of the peptides was tested in medium containing 50% human serum ([43], [44]).

MDR A. baumannii 1607 = assay: microbe, parasite or virus in culture; assay type: cell-based, Acinetobacter baumannii; conditions: MDR 1607
Description: as §1

MDR A. baumannii 1033 = assay: microbe, parasite or virus in culture; assay type: cell-based, Acinetobacter baumannii; conditions: MDR 1033
Description: as §1

MDR A. baumannii 14B0091 = assay: microbe, parasite or virus in culture; assay type: cell-based, Acinetobacter baumannii; conditions: MDR 14B0091
Description: as §1

MDR A. baumannii 1019 = assay: microbe, parasite or virus in culture; assay type: cell-based, Acinetobacter baumannii; conditions: MDR 1019
Description: as §1

MDR A. baumannii 2998 = assay: microbe, parasite or virus in culture; assay type: cell-based, Acinetobacter baumannii; conditions: MDR 2998
Description: as §1

MDR A. baumannii 3618 = assay: microbe, parasite or virus in culture; assay type: cell-based, Acinetobacter baumannii; conditions: MDR 3618
Description: as §1

MDR A. baumannii 1702 = assay: microbe, parasite or virus in culture; assay type: cell-based, Acinetobacter baumannii; conditions: MDR 1702
Description: as §1

MDR A. baumannii 2088 = assay: microbe, parasite or virus in culture; assay type: cell-based, Acinetobacter baumannii; conditions: MDR 2088
Description: as §1

MDR A. baumannii 2962 = assay: microbe, parasite or virus in culture; assay type: cell-based, Acinetobacter baumannii; conditions: MDR 2962
Description: as §1

MDR A. baumannii 921 = assay: microbe, parasite or virus in culture; assay type: cell-based, Acinetobacter baumannii; conditions: MDR 921
Description: as §1

MDR A. baumannii 2997 = assay: microbe, parasite or virus in culture; assay type: cell-based, Acinetobacter baumannii; conditions: MDR 2997
Description: as §1

Escherichia coli = assay: microbe, parasite or virus in culture; assay type: cell-based
Description: as §1

Enterobacter aerogenes = assay: microbe, parasite or virus in culture; assay type: cell-based
Description: as §1

[1] = tested on: NDM-1 Klebsiella pneumoniae; assay: microbe, parasite or virus in culture; assay type: cell-based; conditions: NDM-1
Description: as §1

Pseudomonas aeruginosa = assay: microbe, parasite or virus in culture; assay type: cell-based
Description: as §1

Staphylococcus aureus = assay type: cell-based
Description: as §1

Acinetobacter baumannii = assay: microbe, parasite or virus in culture; assay type: cell-based
Description: as §1, with “[44]). The antimicrobial assay was performed in the presence of physiological ions and glucose. The test media were supplemented with MgCl2 (1 mM), CaCl2 (2 mM), NaCl (150 mM), KCl (4.5 mM), NH4Cl (6 μM) ([45], [46]), or glucose (0.2%) ([47]), followed by routine antimicrobial assay as described previously. For the pH sensitivity assay, the antimicrobial assay was performed in media adjusted to pH values ranging from 4 to 12. To estimate the effects of temperature on antimicrobial activity, the peptide was incubated for 1 h at temperatures ranging from 40 to 100°C ([48]), followed by the antimicrobial assay as described above.” for “[44]).”

human red blood cells = assay type: cell-based
Description: The hemolytic assay was performed after approval from the institutional ethics committee (Academia Sinica Institutional Review Board [IRB]; ID no. AS-IRB02-111075). Blood was collected from healthy humans, and 50 μL of a 2% blood cell suspension in normal saline was treated with an equal volume of peptide at different concentrations. The mixture was then incubated at 37 ± 2°C for 1 h. Next, the cell suspension was centrifuged at 1,000 × g for 10 min. Percent hemolysis was estimated by the absorbance of treated and control supernatant samples at 540 nm ([23], [44]).

CC[C@H](C)[C@H](NC(=O)[C@H](C)NC(=O)[C@H](CCCCN)NC(=O)CNC(=O)[C@H](C)NC(=O)[C@H](CO)NC(=O)[C@H](Cc1ccccc1)NC(=O)[C@H](CC(C)C)NC(=O)CNC(=O)CNC(=O)[C@@H](NC(=O)[C@@H](NC(=O)[C@H](Cc1c[nH]cn1)NC(=O)[C@H](Cc1c[nH]cn1)NC(=O)[C@@H](NC(=O)[C@@H](N)Cc1ccccc1)[C@@H](C)CC)[C@@H](C)CC)[C@@H](C)CC)C(=O)N[C@@H](Cc1c[nH]cn1)C(=O)N[C@@H](CCCNC(=N)N)C(=O)N[C@@H](CC(C)C)C(=O)N[C@H](C(=O)N[C@@H](CCCNC(=N)N)C(=O)N[C@@H](CCCNC(=N)N)C(=O)N[C@@H](CCCNC(=N)N)C(=O)N[C@@H](CCCNC(=N)N)C(=O)N[C@@H](CCCNC(=N)N)C(=O)O)[C@@H](C)CC [TP4, tilapia piscidin 4] (H-FIHHIIGGLFSAGKAIHRLIRRRRR-OH) was tested, and the MBC (MDR A. baumannii 2982) was 3.13 µM (≈ 9.33 µg/mL), the MIC (MDR A. baumannii 2982) was 3.13 µM (≈ 9.33 µg/mL) and the MIC (MDR A. baumannii 1607) was <1.56 µM. For the same compound, the MBC (MDR A. baumannii 1607; read-out: MBC) was <1.56 µM, the MBC (MDR A. baumannii 1033; read-out: MBC) was 6.25 µM (≈ 18.6 µg/mL) and the MIC (MDR A. baumannii 1033; read-out: MIC) was <1.56 µM. For the same compound, the MBC (MDR A. baumannii 14B0091) was <1.56 µM, the MIC (MDR A. baumannii 14B0091) was <1.56 µM and the MBC (MDR A. baumannii 1019) was <1.56 µM. For the same compound, the MIC (MDR A. baumannii 1019) was <1.56 µM, the MIC (MDR A. baumannii 2998) was <1.56 µM and the MBC (MDR A. baumannii 2998; read-out: MBC) was <1.56 µM. The MBC (MDR A. baumannii 3618) was 6.25 µM (≈ 18.6 µg/mL), the MIC (MDR A. baumannii 3618) was 3.13 µM (≈ 9.33 µg/mL) and the MBC (MDR A. baumannii 1702; read-out: MBC) was <1.56 µM. The MIC (MDR A. baumannii 1702; read-out: MIC) was <1.56 µM, the MBC (MDR A. baumannii 2088; read-out: MBC) was <1.56 µM and the MIC (MDR A. baumannii 2088; read-out: MIC) was <1.56 µM. The MBC (MDR A. baumannii 2962) was <1.56 µM, the MIC (MDR A. baumannii 2962) was <1.56 µM and the MBC (MDR A. baumannii 921) was <1.56 µM. For the same compound, the MIC (MDR A. baumannii 921) was <1.56 µM, the MBC (MDR A. baumannii 2997; read-out: MBC) was <1.56 µM and the MIC (MDR A. baumannii 2997; read-out: MIC) was <1.56 µM. The MBC (Escherichia coli) was 3.13 µM (≈ 9.33 µg/mL), the MIC (Escherichia coli) was 3.13 µM (≈ 9.33 µg/mL) and the MBC (Enterobacter aerogenes) was 0.78 µM (≈ 2.33 µg/mL). The MIC (Enterobacter aerogenes) was 0.78 µM (≈ 2.33 µg/mL), the MBC [1] was 6.25 µM (≈ 18.6 µg/mL) and the MIC [1] was 6.25 µM (≈ 18.6 µg/mL). For the same compound, the MBC (Pseudomonas aeruginosa; read-out: MBC) was 12.5 µM (≈ 37.3 µg/mL), the MIC (Pseudomonas aeruginosa; read-out: MIC) was 12.5 µM (≈ 37.3 µg/mL) and the MBC (Staphylococcus aureus) was 1.56 µM (≈ 4.65 µg/mL). For the same compound, the MIC (Staphylococcus aureus) was 1.56 µM (≈ 4.65 µg/mL), the MBC (Acinetobacter baumannii; pH 6) was 3.13−6.25 μM and the MIC (Acinetobacter baumannii; pH 6) was 3.13−6.25 μM. For the same compound, the MBC (Acinetobacter baumannii; pH 7.4, read-out: MBC) was 3.13 µM (≈ 9.33 µg/mL), the MIC (Acinetobacter baumannii; pH 7.4, read-out: MIC) was 3.13 µM (≈ 9.33 µg/mL) and the MBC (Acinetobacter baumannii; pH 8) was 1.56−3.13 μM. For the same compound, the MIC (Acinetobacter baumannii; pH 8) was 1.56−3.13 μM, the MBC (Acinetobacter baumannii; pH 10, read-out: MBC) was 0.78 µM (≈ 2.33 µg/mL) and the MIC (Acinetobacter baumannii; pH 10, read-out: MIC) was 0.78 µM (≈ 2.33 µg/mL).

With CC[C@H](C)[C@H](NC(=O)[C@@H](NC(=O)[C@@H](NC(=O)[C@@H](N)Cc1ccccc1)[C@@H](C)CC)[C@@H](C)CC)C(=O)N[C@@H](CCCCN)C(=O)N[C@@H](CCCCN)C(=O)N[C@@H](CO)C(=O)NCC(=O)NCC(=O)N[C@@H](CC(C)C)C(=O)N[C@@H](Cc1ccccc1)C(=O)N[C@@H](CCCCN)C(=O)N[C@@H](CCCCN)C(=O)N[C@@H](CCCCN)C(=O)N[C@@H](C)C(=O)NCC(=O)N[C@@H](C)C(=O)N[C@]1(C)CCCC=CCCC[C@](C)(C(=O)N[C@H](C(=O)N[C@@H](CCCCN)C(=O)N[C@@H](CCCCN)C(=O)O)[C@@H](C)CC)NC(=O)[C@H](CCCCN)NC(=O)[C@H](CCCCN)NC(=O)[C@H](CCCCN)NC1=O [TP4-1] (H-FIIIKKSGGLFKKKAGA[R5]KKK[R5]IKK-OH; staple 18-22; N-terminus and C-terminus assumed) the 15% hemolysis concn (human red blood cells) was >100 µM, the MBC (Staphylococcus aureus) was >25 µM and the MIC (Staphylococcus aureus) was >25 µM. The MBC (Acinetobacter baumannii; read-out: MBC) was >25 µM and the MIC (Acinetobacter baumannii; read-out: MIC) was >25 µM.
